Our source for the IC50 values is patent publication US20260078120A1, “SUBSTITUTED PYRIDOPYRIMIDINONES” (MIRATI THERAPEUTICS, INC., priority 2022, published 2026).

As usually defined, the IC50 is the concentration that gives 50% inhibition.

Read-outs that look alike come from different tables or passages of the source.

What all share (assay type): cell-based
For assay [1], the system named is T47D (PI3Kα H1047R mutant) cells. Description: Inhibition of pAKT formation, alphaLISA SureFire Ultra AKT 1/2/3 (pS473), T47D cells. To be noted: T47D (PI3Kα H1047R mutant) cells, inhibition of pAKT (pS473) formation, approximately one hour or 24 hours treatment, read-out: T47D pAKT (H1047R mutant) IC50. As for the experimental part: The ability of a compound of Formula (I) to inhibit the formation of pAKT was measured using alphaLISA Surefire Ultra AKT 1/2/3 (pS473) Assay Kit (#ALSU-PAKT-B50K) was obtained from Perkin Elmer (Waltham, MA).
To prepare assay plates for pAKT alphaLISA assays, cells were trypsinized, resuspended in fresh media, and viable cells were counted utilizing trypan blue exclusion. Prior to seeding, cells were washed with PBS and resuspended in HBSS (Gibco, #14025092). T47D (12,000/w), SKBR3(12,000/w), or MKN1(24,000/w) cells were seeded at 12 μl per well in a solid white flat bottom 384 cell culture plate (Perkin Elmer #6007680).
Immediately after seeding, cells were dosed using an Echo Liquid Handler (Beckman Coulter) with compounds at a […] starting concentration and serially diluted (1:4) for a total of 10 concentrations. […] Cells were incubated with the compounds (solubilized in DMSO) for approximately one hour or 24 hours at 37° C. After one hour (or 24 hours) of treatment, cells were lysed with 3 μl of the 5× lysis buffer (provided and incubated at room temperature for 15 min on a microtiter plate shaker). Once cells were sufficiently lysed, 7.5 μl of the acceptor bead mix (made using the manufacturers recommended dilutions) was added to each well and left on the microtiter plate shaker for 1 min prior to incubating plates at room temperature for one hour, in the absence of light. After one hour of incubation with the acceptor bead mix, 7.5 μl of the donor bead mix (made using the manufacturers recommended dilutions) was added to each well and left on the microtiter plate shaker for 1 min prior to incubating plates at room temperature overnight in the absence of light. Plates were then imaged the following day using a CLARIOstar microplate reader (BMG Labtech, Germany).
Percent of control values were calculated by subtracting the average signal from the positive control (alpelisib) treated wells from all treated wells (including DMSO control wells) and then divided by the average signal from the vehicle DMSO treated control wells. Percent of vehicle control values were plotted as log (inhibitor) vs. response-Variable slope (four parameters) for curve fitting and IC50 values were determined using XLfit.
Key: N.D. =not determined
Inhibition of pAKT in T47D (PI3Kα H1047R mutant) cells by Exemplary Compounds of Formula (I)
On the technique in general: Alpha assays give light when donor and acceptor beads are brought close together.

The test system is the same in assay [2]. The assay can be described thus: CellTiter-Glo 2.0 luminescent cell viability assay, 72 hours, T47D cells. To be noted: T47D (PI3Kα H1047R mutant) cells, CellTiter-Glo, approximately 72 hours, read-out: T47D (H1047R mutant) Viability IC50. The procedure, abridged: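 Viability was measured by CellTiter-Glo 2.0 luminescence after approximately 72 h of compound exposure at 37° C. Plating was 1000 cells per well the day before dosing, with ten 1:4 dilutions from a 10 µM top concentration. Values as percent of vehicle were fitted by variable-slope log(inhibitor) regression to give IC50.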
In general terms: Cellular ATP, detected with luciferase, serves as a proxy for viable cell number.

The test system of assay [3] is SKBR3 (PI3Kα wild type) cells. Description: CellTiter-Glo 2.0 luminescent cell viability assay, 72 hours, SKBR3 cells. To be noted: SKBR3 (PI3Kα wild type) cells, CellTiter-Glo, approximately 72 hours, read-out: SKBR3 (WT) Viability IC50. The method in brief: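 Viability measured via CTG luminescence following roughly 72 hours of compound exposure at 37° C. Dosing used a 10 um starting concentration diluted 1:4 over 10 points; percent-of-vehicle data fitted with a variable-slope four-parameter model for IC50.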

Turning to `C[C@@H](Nc1ccccc1C(=O)O)c1cc(F)cn2c(=O)c(C#N)c(N3CCC(F)(F)CC3)nc12` [Example 10-25, (R)-2-((1-(3-cyano-2-(4,4-difluoropiperidin-1-yl)-7-fluoro-4-oxo-4H-pyrido[1,2-a]pyrimidin-9-yl)ethyl)amino)benzoic acid], the half-inhibitory concentration (IC50) in assay [1] (Homo sapiens, T47D) is 4.69 nM; in assay [2] (Homo sapiens, T47D, 72 h) it was 49.6 nM; in assay [3] (Homo sapiens, SK-BR-3, 72 h), over 10000 nM.

In the case of `Cc1cc([C@@H](C)Nc2ccc(F)nc2C(=O)O)c2nc(N3Cc4ccccc4C3)c(C)c(=O)n2c1` [Example 10-29, (R)-6-fluoro-3-((1-(2-(isoindolin-2-yl)-3,7-dimethyl-4-oxo-4H-pyrido[1,2-a]pyrimidin-9-yl)ethyl)amino)picolinic acid], the IC50 is 0.54 nM in assay [1] (Homo sapiens, T47D); 53.9 nM in assay [2]; over 10000 nM in assay [3].

On to `Cc1cc([C@@H](C)Nc2ccc(Cl)nc2C(=O)O)c2nc(N3Cc4ccccc4C3)c(C)c(=O)n2c1` [Example 10-30, (R)-6-chloro-3-((1-(2-(isoindolin-2-yl)-3,7-dimethyl-4-oxo-4H-pyrido[1,2-a]pyrimidin-9-yl)ethyl)amino)picolinic acid], for which the IC50 in assay [1] (Homo sapiens, T47D) is 3.62 nM; in assay [2], 55 nM; in assay [3], over 10000 nM.

`Cc1cc([C@@H](C)Nc2ccccc2C(=O)O)c2nc(N3CCC(F)(F)[C@@H]3C)c(C#N)c(=O)n2c1` [Example 10-31, 2-(((R)-1-(3-cyano-2-((S)-3,3-difluoro-2-methylpyrrolidin-1-yl)-7-methyl-4-oxo-4H-pyrido[1,2-a]pyrimidin-9-yl)ethyl)amino)benzoic acid]: the IC50 in assay [1] (Homo sapiens, T47D) is 6.39 nM; in assay [2] (Homo sapiens, T47D, 72 h) it was 55.1 nM; in assay [3] (Homo sapiens, SK-BR-3, 72 h), over 10000 nM.

Turning to `Cc1cc([C@@H](C)Nc2ccccc2C(=O)O)c2nc(N3CCC(F)(F)[C@H]3C)c(C#N)c(=O)n2c1` [Example 10-32, 2-(((R)-1-(3-cyano-2-((R)-3,3-difluoro-2-methylpyrrolidin-1-yl)-7-methyl-4-oxo-4H-pyrido[1,2-a]pyrimidin-9-yl)ethyl)amino)benzoic acid], the IC50 in assay [1] (Homo sapiens, T47D) is 5.78 nM; in assay [2] (Homo sapiens, T47D, 72 h), 67.3 nM; in assay [3] (Homo sapiens, SK-BR-3, 72 h), over 10000 nM.

As to `Cc1cc([C@@H](C)Nc2ccccc2C(=O)O)c2nc(N3CCN(c4nccs4)CC3)c(C)c(=O)n2c1` [Example 10-33, (R)-2-((1-(3,7-dimethyl-4-oxo-2-(4-(thiazol-2-yl)piperazin-1-yl)-4H-pyrido[1,2-a]pyrimidin-9-yl)ethyl)amino)benzoic acid], the IC50 in assay [1] (Homo sapiens, T47D) was 2.19 nM; in assay [2] (Homo sapiens, T47D, 72 h), 56.5 nM; in assay [3] (Homo sapiens, SK-BR-3, 72 h), over 10000 nM.

Consider `Cc1cc([C@@H](C)Nc2ccccc2C(=O)O)c2nc(N3CCN(c4ccccn4)CC3)c(C)c(=O)n2c1` [Example 10-34, (R)-2-((1-(3,7-dimethyl-4-oxo-2-(4-(pyridin-2-yl)piperazin-1-yl)-4H-pyrido[1,2-a]pyrimidin-9-yl)ethyl)amino)benzoic acid], for which the IC50 in assay [1] (Homo sapiens, T47D) is 1.38 nM; in assay [2] (Homo sapiens, T47D, 72 h), 56.6 nM; in assay [3] (Homo sapiens, SK-BR-3, 72 h), over 10000 nM.

Regarding `Cc1cc([C@@H](C)Nc2ccccc2C(=O)O)c2nc(N3CCN(c4ccc(C#N)c5cc(C#N)ccc45)CC3)c(C)c(=O)n2c1` [Example 10-35, (R)-2-((1-(2-(4-(4,6-dicyanonaphthalen-1-yl)piperazin-1-yl)-3,7-dimethyl-4-oxo-4H-pyrido[1,2-a]pyrimidin-9-yl)ethyl)amino)benzoic acid], the concentration for half-maximal inhibition (IC50) in assay [1] (Homo sapiens, T47D) came out at 4.72 nM; in assay [2] (Homo sapiens, T47D, 72 h) it was 56.7 nM; in assay [3] (Homo sapiens, SK-BR-3, 72 h), 7950 nM.

Regarding `Cc1cc([C@@H](C)Nc2ccccc2C(=O)O)c2nc(N3CCN(c4ccc(F)cc4)CC3)c(C)c(=O)n2c1` [Example 10-36, (R)-2-((1-(2-(4-(4-fluorophenyl)piperazin-1-yl)-3,7-dimethyl-4-oxo-4H-pyrido[1,2-a]pyrimidin-9-yl)ethyl)amino)benzoic acid], the IC50 was 3.8 nM in assay [1] (Homo sapiens, T47D); 57 nM in assay [2] (Homo sapiens, T47D, 72 h); over 10000 nM in assay [3] (Homo sapiens, SK-BR-3, 72 h).

`Cc1cc([C@@H](C)Nc2ccccc2C(=O)O)c2nc(NC3CC(F)(F)C3)c(C#N)c(=O)n2c1` [Example 10-37, (R)-2-((1-(3-cyano-2-((3,3-difluorocyclobutyl)amino)-7-methyl-4-oxo-4H-pyrido[1,2-a]pyrimidin-9-yl)ethyl)amino)benzoic acid]: the concentration for half-maximal inhibition (IC50) in assay [1] (Homo sapiens, T47D) is 2.19 nM; in assay [2] (Homo sapiens, T47D, 72 h) it was 57.4 nM; in assay [3] (Homo sapiens, SK-BR-3, 72 h) it was over 10000 nM.

On to `Cc1cc([C@@H](C)Nc2ccccc2C(=O)O)c2nc(N3CCN(c4cccnc4)CC3)c(C)c(=O)n2c1` [Example 10-38, (R)-2-((1-(3,7-dimethyl-4-oxo-2-(4-(pyridin-3-yl)piperazin-1-yl)-4H-pyrido[1,2-a]pyrimidin-9-yl)ethyl)amino)benzoic acid], for which the IC50 in assay [1] (Homo sapiens, T47D) was 1.97 nM; in assay [2] (Homo sapiens, T47D, 72 h), 57.9 nM; in assay [3] (Homo sapiens, SK-BR-3, 72 h) it was over 10000 nM.

On to `C[C@@H](Nc1ccccc1C(=O)O)c1cc(F)cn2c(=O)c(C#N)c(N3Cc4ccccc4C3)nc12` [Example 10-39, (R)-2-((1-(3-cyano-7-fluoro-2-(isoindolin-2-yl)-4-oxo-4H-pyrido[1,2-a]pyrimidin-9-yl)ethyl)amino)benzoic acid], for which the IC50 in assay [1] (Homo sapiens, T47D) was 1.7 nM; in assay [2] (Homo sapiens, T47D, 72 h), 59 nM; in assay [3] (Homo sapiens, SK-BR-3, 72 h), over 10000 nM.

Regarding `Cc1cc([C@@H](C)Nc2ccccc2C(=O)O)c2nc(N3CCN(c4ccc(F)cc4)CC3)c(C#N)c(=O)n2c1` [Example 10-40, (R)-2-((1-(3-cyano-2-(4-(4-fluorophenyl)piperazin-1-yl)-7-methyl-4-oxo-4H-pyrido[1,2-a]pyrimidin-9-yl)ethyl)amino)benzoic acid], the IC50 in assay [1] (Homo sapiens, T47D) was 1.91 nM; in assay [2] (Homo sapiens, T47D, 72 h), 60 nM; in assay [3] (Homo sapiens, SK-BR-3, 72 h), over 10000 nM.

For the molecule `Cc1cc([C@@H](C)Nc2ccccc2C(=O)O)c2nc(N3CCN(c4ccc(C#N)cc4)[C@@H](C)C3)c(C#N)c(=O)n2c1` [Example 10-41, 2-(((R)-1-(3-cyano-2-((S)-4-(4-cyanophenyl)-3-methylpiperazin-1-yl)-7-methyl-4-oxo-4H-pyrido[1,2-a]pyrimidin-9-yl)ethyl)amino)benzoic acid], the IC50 in assay [1] (Homo sapiens, T47D) was 7.18 nM; in assay [2] (Homo sapiens, T47D, 72 h) it was 60.2 nM; in assay [3] (Homo sapiens, SK-BR-3, 72 h), over 10000 nM.

`Cc1cc([C@@H](C)Nc2ccccc2C(=O)O)c2nc(N3CCN(c4ccc(C#N)cc4)C[C@H]3C)c(C)c(=O)n2c1` [Example 10-42, 2-(((R)-1-(2-((R)-4-(4-cyanophenyl)-2-methylpiperazin-1-yl)-3,7-dimethyl-4-oxo-4H-pyrido[1,2-a]pyrimidin-9-yl)ethyl)amino)benzoic acid]: the figures for the IC50 in assay [1], in assay [2] and in assay [3] were 3.09 nM, 61.5 nM and 9870 nM, respectively.

In the case of `Cc1cc([C@@H](C)Nc2ccccc2C(=O)O)c2nc(N3Cc4ccccc4C3)c(C#N)c(=O)n2c1` [Example 10-43, (R)-2-((1-(3-cyano-2-(isoindolin-2-yl)-7-methyl-4-oxo-4H-pyrido[1,2-a]pyrimidin-9-yl)ethyl)amino)benzoic acid], the IC50 in assay [1] (Homo sapiens, T47D) is 2.52 nM; in assay [2] (Homo sapiens, T47D, 72 h), 62.2 nM; in assay [3] (Homo sapiens, SK-BR-3, 72 h), over 10000 nM.

On to `Cc1cc([C@@H](C)Nc2ccccc2C(=O)O)c2nc(N3CC(C)C(F)(F)C3)c(C#N)c(=O)n2c1` (stereo partly drawn) [Example 10-44, 2-(((1R)-1-(3-cyano-2-(3,3-difluoro-4-methylpyrrolidin-1-yl)-7-methyl-4-oxo-4H-pyrido[1,2-a]pyrimidin-9-yl)ethyl)amino)benzoic acid], for which the IC50 was found to be 1.47 nM in assay [1] (Homo sapiens, T47D); 62.5 nM in assay [2] (Homo sapiens, T47D, 72 h); 5030 nM in assay [3] (Homo sapiens, SK-BR-3, 72 h).
